Data taken from publication PMC12656268, “Venom Peptides Across Asian and American Tarantulas Utilize Dual Pharmacology to Target Activation and Fast Inactivation of Voltage-Gated Sodium Channels” (Toxins, 2025).
Values joined by “and” are separate entries in the source; they are usually repeats but may differ in a detail not shown here. Identical values can stand only once. Positions of bridges follow the written chain, without caps; N, C: chain ends. Residues, ends and D or L forms follow the SMILES beside them.

Tests used:
CaV3.2 = experiment: hCaV3.2 (T-type) current, automated whole-cell patch clamp (QPatch 16X); assay type: cell-based, human; conditions: up to 10 μM tested; holding −90 mV, 60 ms steps to −30 mV from −120 mV 60 ms conditioning pulse; 5 min incubation; Figure S1
Protocol: Unless otherwise specified, all cell culture reagents were obtained from Life Technologies (Carlsbad, CA, USA). The human neuroblastoma cell line SH-SY5Y (ATCC CRL-2266; Manassas, VA, USA) was maintained in RPMI medium supplemented with 15% fetal bovine serum (FBS) and 2 mM L-glutamine. HEK293 cells stably expressing human NaV channel isoforms together with the β1 auxiliary subunit (SB Drug Discovery, Glasgow, UK) were propagated in Minimal Essential Medium (MEM; Sigma-Aldrich, St. Louis, MO, USA) containing 10% FBS, 100 U/mL penicillin, 100 µg/mL streptomycin, 2 mM L-glutamine, and selective antibiotics (blasticidin, geneticin, and zeocin) at concentrations recommended by the supplier. HEK293T cells expressing the human CaV3.2 channel (a generous gift from Prof. Emmanuel Bourinet, Institut de Génomique Fonctionnelle, Université de Montpellier, France, and Prof. Edward Perez-Reyes, University of Virginia School of Medicine, USA) were grown in Dulbecco’s MEM supplemented with 10% FBS, 100 U/mL penicillin, 100 µg/mL streptomycin, and 750 µg/mL geneticin.
CaV3.2 channel currents were recorded from HEK293 cells expressing hCaV3.2 using an automated QPatch 16X platform (Sophion Bioscience A/S). […]

NaV1.3 = NaV1.3 (Homo sapiens, UniProt Q9NY46); experiment: Voltage dependence of steady-state inactivation and activation, NaV1.3; assay type: cell-based
Protocol: The voltage dependence of steady-state activation was assessed by recording sodium currents evoked by depolarizing voltage steps ranging from −110 mV to +80 mV in 5 mV increments. Peak conductance (GNa) was derived using the equation G = I/(V − Vrev), where I denotes the measured current, V the applied membrane potential, and Vrev the sodium reversal potential. To evaluate the voltage dependence of steady-state fast inactivation, a two-pulse protocol was used. Cells were conditioned with 500 ms pre-pulses at potentials between −130 mV and −10 mV (10 mV increments), followed by a 20 ms test depolarization to 0 mV to elicit sodium currents. The steady-state fast inactivation currents were plotted as I/Imax, where I = current value and Imax = highest current value within the experiment. The voltage-dependence of steady-state activation and inactivation were determined either in the absence of peptide or following 5 min exposure to peptide at the respective IC50 concentration at the NaV subtype analyzed to streamline the investigation using an effective single concentration as previously described by us.
For calcium influx experiments, bioactivity comparisons between venom fractions and controls were based on the difference between the maximal and minimal fluorescence intensity values obtained from single-replicate assays. Electrophysiological data analysis was conducted using GraphPad Prism (version 8; GraphPad Software, San Diego, CA, USA). Nonlinear regression was applied to fit the concentration–response relationships using a variable Hill slope: log(inhibitor) versus normalized response for determining IC50 values, and log(agonist) versus normalized response for EC50 calculations. Reversibility and dissociation kinetics were analyzed by fitting data with a single-phase exponential decay model, while voltage-dependence of steady-state activation and inactivation parameters were derived from Boltzmann sigmoid fits of normalized conductance (G/Gmax) or current (I/Imax) values to determine the half-activation or half-inactivation voltages (V50). Data are expressed as mean ± SEM, where n represents the number of individual cells analyzed.

NaV1.3, sequence (Q9NY46 whole entry): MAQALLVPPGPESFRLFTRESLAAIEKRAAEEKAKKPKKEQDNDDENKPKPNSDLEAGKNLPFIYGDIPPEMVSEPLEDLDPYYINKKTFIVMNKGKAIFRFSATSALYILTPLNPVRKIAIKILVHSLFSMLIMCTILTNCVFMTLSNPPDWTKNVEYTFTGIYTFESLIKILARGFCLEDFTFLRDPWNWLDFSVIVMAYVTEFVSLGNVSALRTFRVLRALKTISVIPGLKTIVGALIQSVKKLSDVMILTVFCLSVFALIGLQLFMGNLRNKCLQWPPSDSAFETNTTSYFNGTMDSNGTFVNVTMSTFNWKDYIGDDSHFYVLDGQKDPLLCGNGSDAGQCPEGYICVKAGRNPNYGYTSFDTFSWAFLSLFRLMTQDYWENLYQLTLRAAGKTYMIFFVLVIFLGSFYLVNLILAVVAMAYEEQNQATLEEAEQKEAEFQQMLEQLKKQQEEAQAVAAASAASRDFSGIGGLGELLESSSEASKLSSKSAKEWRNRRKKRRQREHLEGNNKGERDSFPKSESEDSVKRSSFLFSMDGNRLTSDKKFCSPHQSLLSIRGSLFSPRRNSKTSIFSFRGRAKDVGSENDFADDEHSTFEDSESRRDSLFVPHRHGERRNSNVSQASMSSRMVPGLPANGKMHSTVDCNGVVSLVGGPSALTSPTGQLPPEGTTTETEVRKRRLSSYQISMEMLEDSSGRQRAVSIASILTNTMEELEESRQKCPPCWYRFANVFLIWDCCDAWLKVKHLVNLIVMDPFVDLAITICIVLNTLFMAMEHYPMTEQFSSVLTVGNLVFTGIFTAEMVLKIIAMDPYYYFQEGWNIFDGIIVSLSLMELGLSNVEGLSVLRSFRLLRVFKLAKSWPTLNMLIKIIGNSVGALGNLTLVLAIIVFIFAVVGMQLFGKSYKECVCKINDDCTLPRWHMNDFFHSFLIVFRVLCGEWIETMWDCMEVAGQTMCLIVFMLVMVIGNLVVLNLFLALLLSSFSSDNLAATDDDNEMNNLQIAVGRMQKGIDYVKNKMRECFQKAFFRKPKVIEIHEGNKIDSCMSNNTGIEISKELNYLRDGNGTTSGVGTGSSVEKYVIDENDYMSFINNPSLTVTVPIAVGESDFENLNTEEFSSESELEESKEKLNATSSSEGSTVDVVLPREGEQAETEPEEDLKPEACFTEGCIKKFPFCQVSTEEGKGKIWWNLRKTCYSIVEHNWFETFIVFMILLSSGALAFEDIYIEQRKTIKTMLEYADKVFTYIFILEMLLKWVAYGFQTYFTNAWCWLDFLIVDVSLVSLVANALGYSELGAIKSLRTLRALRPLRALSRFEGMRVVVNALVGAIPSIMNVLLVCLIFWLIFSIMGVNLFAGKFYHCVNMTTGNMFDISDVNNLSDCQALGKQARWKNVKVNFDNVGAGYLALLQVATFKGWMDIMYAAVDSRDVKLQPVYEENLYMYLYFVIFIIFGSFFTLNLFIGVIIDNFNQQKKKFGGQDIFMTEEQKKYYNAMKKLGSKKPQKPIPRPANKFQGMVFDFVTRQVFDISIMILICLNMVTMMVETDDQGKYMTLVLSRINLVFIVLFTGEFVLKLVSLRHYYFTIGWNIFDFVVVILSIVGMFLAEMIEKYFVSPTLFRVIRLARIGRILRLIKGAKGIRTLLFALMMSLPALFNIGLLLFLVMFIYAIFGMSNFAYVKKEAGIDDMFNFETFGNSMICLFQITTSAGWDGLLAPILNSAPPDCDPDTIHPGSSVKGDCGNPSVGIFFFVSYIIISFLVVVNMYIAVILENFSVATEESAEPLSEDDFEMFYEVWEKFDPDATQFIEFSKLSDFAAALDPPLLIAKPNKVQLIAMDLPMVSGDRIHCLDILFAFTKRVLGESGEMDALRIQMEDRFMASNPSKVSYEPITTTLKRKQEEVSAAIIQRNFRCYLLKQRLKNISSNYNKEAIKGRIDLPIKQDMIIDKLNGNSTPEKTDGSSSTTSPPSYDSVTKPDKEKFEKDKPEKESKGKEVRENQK
NaV1.3, sequence (Q07699 19-218, further chain): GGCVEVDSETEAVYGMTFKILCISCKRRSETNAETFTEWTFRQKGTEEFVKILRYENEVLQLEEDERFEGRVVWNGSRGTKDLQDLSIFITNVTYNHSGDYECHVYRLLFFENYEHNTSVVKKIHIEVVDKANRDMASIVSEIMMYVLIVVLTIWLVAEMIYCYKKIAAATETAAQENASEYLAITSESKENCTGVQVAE

CC(C)C[C@@H]1NC(=O)[C@H](Cc2ccccc2)NC(=O)[C@H](Cc2ccc(O)cc2)NC(=O)[C@H](CCCNC(=N)N)NC(=O)[C@@H](NC(=O)[C@@H](N)CCC(=O)O)CSSC[C@@H]2NC(=O)[C@@H]3CSSC[C@@H](C(=O)N[C@H](C(=O)N[C@@H](Cc4c[nH]c5ccccc45)C(=O)N[C@@H](CC(=O)O)C(=O)N[C@@H](Cc4c[nH]c5ccccc45)C(=O)N[C@H](C(=O)N[C@@H](Cc4ccccc4)C(=O)O)[C@@H](C)O)C(C)C)NC(=O)[C@H](Cc4c[nH]c5ccccc45)NC(=O)[C@H](CCC(N)=O)NC(=O)[C@H](Cc4c[nH]cn4)NC(=O)[C@H](CCCCN)NC(=O)[C@H](CC(N)=O)NC(=O)[C@H](Cc4c[nH]cn4)NC(=O)[C@H](CSSC[C@H](NC(=O)CNC(=O)CNC1=O)C(=O)N[C@@H](CO)C(=O)N[C@@H](CCC(N)=O)C(=O)NCC(=O)N[C@@H](CCC(=O)O)C(=O)N[C@@H](CCCCN)C(=O)N3)NC(=O)[C@H](C(C)C)NC(=O)[C@H](CC(C)C)NC(=O)[C@H](Cc1c[nH]cn1)NC(=O)[C@H](CCC(=O)O)NC2=O [sOa1a-OH] (H-ECRYFLGGCSQGEKCCEHLVCHNKHQWCVWDWTF-OH; disulfide 2-16, 9-21, 15-28; N-terminus assumed)
Activity on CaV3.2 (CaV3.2): did not observe activity

CC(C)C[C@@H]1NC(=O)[C@H](Cc2ccccc2)NC(=O)[C@H](Cc2ccc(O)cc2)NC(=O)[C@H](CCCNC(=N)N)NC(=O)[C@@H](NC(=O)[C@@H](N)CCC(=O)O)CSSC[C@@H]2NC(=O)[C@@H]3CSSC[C@@H](C(=O)N[C@H](C(=O)N[C@@H](Cc4c[nH]c5ccccc45)C(=O)N[C@@H](CC(=O)O)C(=O)N[C@@H](Cc4c[nH]c5ccccc45)C(=O)N[C@H](C(=O)N[C@@H](Cc4ccccc4)C(N)=O)[C@@H](C)O)C(C)C)NC(=O)[C@H](Cc4c[nH]c5ccccc45)NC(=O)[C@H](CCC(N)=O)NC(=O)[C@H](Cc4c[nH]cn4)NC(=O)[C@H](CCCCN)NC(=O)[C@H](CC(N)=O)NC(=O)[C@H](Cc4c[nH]cn4)NC(=O)[C@H](CSSC[C@H](NC(=O)CNC(=O)CNC1=O)C(=O)N[C@@H](CO)C(=O)N[C@@H](CCC(N)=O)C(=O)NCC(=O)N[C@@H](CCC(=O)O)C(=O)N[C@@H](CCCCN)C(=O)N3)NC(=O)[C@H](C(C)C)NC(=O)[C@H](CC(C)C)NC(=O)[C@H](Cc1c[nH]cn1)NC(=O)[C@H](CCC(=O)O)NC2=O [sOa1a-NH2] (H-ECRYFLGGCSQGEKCCEHLVCHNKHQWCVWDWTF-NH2; disulfide 2-16, 9-21, 15-28; N-terminus assumed)
V50 of steady-state activation in presence of peptide, NaV1.3 (NaV1.3; control V50 = −21 ± 0.4 mV, steps −110 to +80 mV in 5 mV increments, mean ± SEM, 3 to 5 repeats): −26 mV
V50 of steady-state inactivation in presence of peptide, NaV1.3 (NaV1.3; control V50 = −71 ± 0.71 mV, 5 min exposure at IC50 concentration, 23 nM, 500 ms pre-pulses −130 to −10 mV, mean ± SEM, 3 to 5 repeats): -57 ± 1.4 mV and −57 mV
ΔV50 of steady-state inactivation, NaV1.3 (NaV1.3; peptide vs control, shift to more depolarized potentials, 3 to 5 repeats): 14 mV
Shift in voltage of activation, NaV1.3 (NaV1.3; presence of 23 nM sOa1a-NH2): ≤ 5 mV
Activity on CaV3.2 (CaV3.2): did not observe activity
